Tests used:
[1] = Pharmacokinetics in mice after single s.c. or oral dose; type: in vivo, female CD1 mice; settings: for AUC / Cmax / half-life: female, CD1, mouse, single dose, plasma
[2] = target: T1, FOXM1 (Homo sapiens, UniProt Q08050); assay: tr-FRET competitive binding assay with Fl-NB-72 probe; parameters: we attached a terbium donor to purified, full length FOXM1 through a streptavidin-biotin linker; settings: calculated from IC50 values; Supplementary Table 1; read-out: Ki, affinity for binding to FOXM1 protein
T1 sequence (Q08050 1-763): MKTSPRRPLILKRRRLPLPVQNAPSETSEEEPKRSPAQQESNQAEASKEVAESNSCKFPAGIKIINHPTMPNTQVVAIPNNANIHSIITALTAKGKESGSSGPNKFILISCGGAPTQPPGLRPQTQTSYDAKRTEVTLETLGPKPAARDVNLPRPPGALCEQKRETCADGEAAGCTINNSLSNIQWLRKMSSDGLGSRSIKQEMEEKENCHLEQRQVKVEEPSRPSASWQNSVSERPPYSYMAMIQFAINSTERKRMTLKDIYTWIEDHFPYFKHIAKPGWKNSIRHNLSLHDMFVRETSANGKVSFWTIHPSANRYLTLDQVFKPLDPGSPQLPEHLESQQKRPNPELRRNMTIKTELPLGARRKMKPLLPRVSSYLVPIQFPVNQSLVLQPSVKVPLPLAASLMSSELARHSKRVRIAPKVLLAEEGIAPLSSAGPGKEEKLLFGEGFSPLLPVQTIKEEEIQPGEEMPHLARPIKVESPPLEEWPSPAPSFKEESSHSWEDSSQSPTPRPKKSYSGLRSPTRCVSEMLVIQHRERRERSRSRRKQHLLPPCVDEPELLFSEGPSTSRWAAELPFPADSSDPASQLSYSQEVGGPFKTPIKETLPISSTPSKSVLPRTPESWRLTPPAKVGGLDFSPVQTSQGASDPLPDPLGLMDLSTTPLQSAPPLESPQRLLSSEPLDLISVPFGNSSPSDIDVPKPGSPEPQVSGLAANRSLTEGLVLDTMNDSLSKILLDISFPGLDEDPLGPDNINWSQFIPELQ
Experimental: Competitive binding assays of compound binding to FOXM1 by tr-FRET were done in FRET buffer (20 mM Tris, pH 7.5, 50 mM NaCl, 0.01% NP-40 detergent, 10% glycerol) with 0.3 mg/ml ovalbumin and 0.1 mM butylated hydroxy-anisole added fresh daily. Solutions of the protein, fluorescent probe and compound dilutions were prepared at 3× concentrations, the final dilution taking place as they were mixed together in equal portions on the microtiter plate.
Final concentrations were 10^−5 M to 10^−9 M, with the last point being buffer only, no compound. Fluorescein-NB-72 (Fl-NB- 72) was prepared at 1 mM in DMF and stored at −20 °C. It was diluted into FRET buffer to give 100 nM in the assay. Incubations were done in duplicate on black Molecular Devices 96-well microtiter plates. 5 μl of Fl-NB-72 and 5 μl of the compound dilutions, were mixed together on the plate. To this was added 5 µl biotin-FoxM1 and incubated in the dark at room temperature, for 1 h. […] To correct for background signals, biotin-FOXM1 was omitted, and diffusion-enhanced FRET incubations were done in duplicate on black Molecular Devices 96-well microtiter plates. Five microliter of Fl-NB-72 and 5 μl of the compound solutions were mixed together and then 5 µl of FRET buffer plus SaTb was added, mixed and incubated in the dark at room temperature, for 1 h. The tr-FRET signals measured as above were subtracted as a background from the first incubations that contained biotin-FOXM1. Graphs were prepared using Graph Pad/Prism 4.

[3] = tested on: DT22 breast tumor xenografts; assay: DT22 human breast tumor xenograft growth in NSG mice; type: in vivo; settings: for tumor growth in vivo: low doses (2–20 mg/kg) s.c. daily or every other day; for animal body weight / growth of tumor xenografts: low doses s.c.: NB-115 2 or 6 mg/kg daily, NB-63 20 mg/kg daily then 10 mg/kg every other day from day 20; for tumor growth: DT22 tumors, NSG mice, s.c., 20 mg/kg every other day for 10 days then 10 mg/kg every other day
Experimental: For examination of the effects of compounds on breast tumor growth suppression, intact female NOD/SCID-gamma (NSG) mice were used as detailed previously.[39] DT-22 breast cancer cells (1 × 10^6 cells/mouse) were injected s.c. into the right axial mammary gland. Mice received s.c. injection or oral gavage daily or every second or third day as indicated, with vehicle or treatment compound, and tumor volume (length × width^2/2) was monitored over time.

[4] = tested on: DT22 cells and MCF7 cells; assay: Cell proliferation in DT22 and MCF7 cells; type: cell-based, human; settings: 3 days
Experimental: WST-1 assay (Roche, Basel, Switzerland) was used to quantify cell viability as described.[38] […] All assays were performed in triplicate and analyzed using Graph Pad Prism 8.0.

[5] = tested on: FOXM1 target gene expression in MCF7 cells; assay: FOXM1 target gene expression by qRT-PCR; type: cell-based, human; settings: MCF7, 24 h, compound at its IC50 for proliferation
Experimental: Total RNA was isolated using TRIzol (Invitrogen) and reverse transcribed using […] reverse transcriptase (New England BioLabs). Real-time PCR was performed using SYBRgreen PCR Master Mix (Quantabio) as described.[15] Relative mRNA levels of genes were normalized to the housekeeping gene 36B4, and fold-change calculated relative to the vehicle treated samples. Results are the average ± SD from at least two independent experiments carried out in triplicate. Primer sequences for the genes studied were obtained from the Harvard Primer Bank. Sequences are available on their website.

[6] = tested on: tamoxifen-resistant MCF7 breast cancer cells; assay: Proliferation of tamoxifen-resistant MCF7 cells; type: cell-based, human; settings: 6 days, cell numbers
Experimental: resistant MCF7 cells. Cells were treated with NB-73 or trans-hydroxytamoxifen (OH-
Tam) for 6 days and cell numbers were monitored. Values are mean ± SD of three
(1 picture or pasted object on this page, not shown here)

Row | Structure (SMILES) | Cmax ([1]; oral, 40 mg/kg) [nM] | Ki [2] [nM] | blood levels of compound ([1]; after oral administration) | blood levels of compound ([1]; after s.c. injection) | AUC ([1]; oral, 60 mg/kg) [µM·h] | Cmax ([1]; oral, 60 mg/kg) [nM] | AUC ([1]; sc, 60 mg/kg) [µM·h] | Cmax ([1]; sc, 60 mg/kg) [nM] | half-life ([1]; oral, 60 mg/kg) [h] | half-life ([1]; sc, 60 mg/kg) [h] | tumor growth in vivo [3] | also measured
1 | CCN(CC)CCCCCCOc1ccc(C(c2ccc(OCCCCCCN(CC)CC)cc2)=C2[C@H]3C[C@@H]4C[C@@H](C[C@H]2C4)C3)cc1 [NB-51] | 110 | 130 | – | – | – | – | – | – | – | – | – | AUC ([1]; oral, 40 mg/kg): 1.81 µM·h; half-life ([1]; oral, 40 mg/kg): 20.1 h; AUC ([1]; sc, 20 mg/kg): 4.73 µM·h; Cmax ([1]; sc, 20 mg/kg): 180 nM; half-life ([1]; sc, 20 mg/kg): 61.8 h
2 | C[N+]1(CCCCCCOc2ccc(C(c3ccc(Cl)cc3)=C3C4C[C@H]5C[C@@H](C4)C[C@H]3C5)cc2)CCCC1 [NB-63] | 400 | – | only very low levels | very high blood levels | – | – | – | – | – | – | greatly suppress tumor growth | AUC ([1]; oral, 40 mg/kg): 1.67 µM·h; half-life ([1]; oral, 40 mg/kg): 5.8 h; AUC ([1]; sc, 40 mg/kg): 158 µM·h; Cmax ([1]; sc, 40 mg/kg): 5010 nM; half-life ([1]; sc, 40 mg/kg): 31.5 h; animal body weight [3]: little impact on animal body weight; growth of tumor xenografts [3]: effective in suppressing the growth of tumor xenografts; relative potency in suppressing cell proliferation [4]: potencies very similar to those of their parent amine compounds
3 | c1cc(C(=C2C3CC4CC(C3)CC2C4)c2ccc(OCCCCCCN3CCCC3)cc2)ccc1OCCCCCCN1CCCC1 [NB-65] | – | 190 | – | – | 3.23 | 80 | 14.8 | 580 | – | – | – | –
4 | C[N+]1(CCCCCCOc2ccc(C(=C3C4CC5CC(C4)CC3C5)c3ccc(OCCCCCC[N+]4(C)CCCC4)cc3)cc2)CCCC1 [NB-68] | – | 51 | only very low levels | very high blood levels | 0.29 | 71 | 127 | 7120 | 6.2 | 23.7 | greatly suppress tumor growth | tumor growth [3]: greatly suppress tumor growth; relative potency in suppressing cell proliferation [4]: potencies very similar to those of their parent amine compounds
5 | CC[N+](C)(CC)CCCCCCOc1ccc(C(=C2C3CC4CC(C3)CC2C4)c2ccc(OCCCCCC[N+](C)(CC)CC)cc2)cc1 [NB-115] | 100 | – | – | – | – | – | – | – | – | – | greatly suppress tumor growth | AUC ([1]; sc, 40 mg/kg): 746 µM·h; Cmax ([1]; sc, 40 mg/kg): 34700 nM; half-life ([1]; sc, 40 mg/kg): 38.6 h; animal body weight [3]: little impact on animal body weight; growth of tumor xenografts [3]: effective in suppressing the growth of tumor xenografts; expression of ATF3, a gene suppressed by FOXM1 [5]: increased expression of ATF3; expression of FOXM1 stimulated target genes (FOXM1C, AURKB, CCNB1, PLK1) [5]: significantly reduced the expression
6 | CC/C(=C(\c1ccc(O)cc1)c1ccc(OCCN(C)C)cc1)c1ccccc1 [trans-hydroxytamoxifen, reference compound] | – | – | – | – | – | – | – | – | – | – | – | proliferation of tamoxifen-resistant MCF7 cells [6]: weakly stimulated

More lines, main results first:

Row | Cmax ([1]; oral, 40 mg/kg) [nM] | Ki [2] [nM] | blood levels of compound ([1]; after oral administration) | blood levels of compound ([1]; after s.c. injection) | AUC ([1]; oral, 60 mg/kg) [µM·h] | Cmax ([1]; oral, 60 mg/kg) [nM] | AUC ([1]; sc, 60 mg/kg) [µM·h] | Cmax ([1]; sc, 60 mg/kg) [nM] | half-life ([1]; oral, 60 mg/kg) [h] | half-life ([1]; sc, 60 mg/kg) [h] | Structure (SMILES) | tumor growth in vivo [3] | also measured
7 | – | – | – | – | 8.32 | 220 | 10.2 | 270 | 51.2 | 222 | c1cc(C(c2ccc(OCCCCCCN3CCCCC3)cc2)=C2[C@H]3C[C@@H]4C[C@@H](C[C@H]2C4)C3)ccc1OCCCCCCN1CCCCC1 [NB-70] | – | –
8 | – | – | only very low levels | very high blood levels | 0.08 | 30 | 198 | 9520 | – | 33.2 | C[N+]1(CCCCCCOc2ccc(C(=C3C4CC5CC(C4)CC3C5)c3ccc(OCCCCCC[N+]4(C)CCCCC4)cc3)cc2)CCCCC1 [NB-71] | greatly suppress tumor growth | tumor growth [3]: greatly suppress tumor growth
9 | – | – | – | – | 11.3 | 320 | 15.9 | 370 | 60.6 | 302 | c1cc(C(=C2C3CC4CC(C3)CC2C4)c2ccc(OCCCCCCN3CCCCCC3)cc2)ccc1OCCCCCCN1CCCCCC1 [NB-72] | – | –

From publication PMC6884575, “Suppression of FOXM1 activities and breast cancer growth in vitro and in vivo by a new class of compounds” (NPJ Breast Cancer, 2019)
